Reference: the Deep4Chem optical property database

Test: photoluminescence quantum yield (fraction); solvent given as SMILES

Question: Which results are given for `CCN(CC)c1ccc(/C=C/C2=[O+][B-](F)(F)Oc3c2c(=O)oc2cc(N(CC)CC)ccc32)cc1`?
Answer: photoluminescence quantum yield (in C1CCCCC1): 0.46; photoluminescence quantum yield (in C1COCCO1): 0.72; photoluminescence quantum yield (in CC#N): 0.011; photoluminescence quantum yield (in CC(C)=O): 0.021; photoluminescence quantum yield (in CCO): 0.044; photoluminescence quantum yield (in CCOC(C)=O): 0.16; photoluminescence quantum yield (in CO): 0.016; photoluminescence quantum yield (in CS(C)=O): 0.035; photoluminescence quantum yield (in Cc1ccccc1): 0.93; photoluminescence quantum yield (in ClC(Cl)Cl): 0.75; photoluminescence quantum yield (in ClCCl): 0.16; photoluminescence quantum yield (in OCC(O)CO): 0.36; photoluminescence quantum yield (in OCCO): 0.072

Question: With `COc1ccc(-c2cc3c(o2)=CC2=Cc4cc5oc(-c6ccc(OC)cc6)cc5n4[B-](F)(F)[N+]=32)cc1` as the compound, how does the photoluminescence quantum yield (in C1CCOC1) read?
Answer: The photoluminescence quantum yield was 0.83.

Question: And the photoluminescence quantum yield (in CC#N)?
Answer: Its photoluminescence quantum yield is 0.85.

Question: And the photoluminescence quantum yield (in CCO)?
Answer: Its photoluminescence quantum yield is 0.77.

Question: What about the photoluminescence quantum yield (in CO) of the same compound?
Answer: The photoluminescence quantum yield was 0.77.

Question: And the photoluminescence quantum yield (in Cc1ccccc1)?
Answer: Its photoluminescence quantum yield is 0.87.

Question: What about the photoluminescence quantum yield (in ClC(Cl)Cl) of the same compound?
Answer: The photoluminescence quantum yield was 0.86.

Question: With `COc1ccc(-c2sc3c(-c4ccc(OC)cc4)c4n(c3c2-c2ccc(OC)cc2)[B-](F)(F)[N+]2=Cc3c(-c5ccc(OC)cc5)c5sc(-c6ccc(OC)cc6)c(-c6ccc(OC)cc6)c5n3[B-](F)(F)[N+]2=C4)cc1` as the compound, how does the photoluminescence quantum yield (in CC#N) read?
Answer: The photoluminescence quantum yield was 0.36.

Question: And the photoluminescence quantum yield (in CCCCCC)?
Answer: The photoluminescence quantum yield was 0.46.

Question: What about the photoluminescence quantum yield (in CN(C)C=O) of the same compound?
Answer: The photoluminescence quantum yield was 0.32.

Question: What about the photoluminescence quantum yield (in Cc1ccccc1) of the same compound?
Answer: The photoluminescence quantum yield was 0.51.

Question: What about the photoluminescence quantum yield (in ClCCl) of the same compound?
Answer: The photoluminescence quantum yield was 0.5.

Question: For `N#Cc1c(-n2c3ccccc3c3cc(Br)ccc32)c(C#N)c(-n2c3ccccc3c3cc(Br)ccc32)c(-n2c3ccccc3c3cc(Br)ccc32)c1-n1c2ccccc2c2cc(Br)ccc21`, which photoluminescence quantum yield (in Cc1ccccc1) is on record?
Answer: Its photoluminescence quantum yield is 0.85.

Question: With `Cc1cc2nc3c(=O)[nH]c(=O)nc-3n(C)c2cc1C` as the compound, how does the photoluminescence quantum yield (in CC#N) read?
Answer: The photoluminescence quantum yield was 0.16.

Question: What does the source list for `Cc1ccc(C2=[N+]3C(=Cc4ccc(C)n4[B-]3(F)F)c3ccccc32)[nH]1`?
Answer: photoluminescence quantum yield (in C1CCOC1): 0.81; photoluminescence quantum yield (in CC#N): 0.8; photoluminescence quantum yield (in CCCCCC): 0.83; photoluminescence quantum yield (in CO): 0.83; photoluminescence quantum yield (in Cc1ccccc1): 0.78; photoluminescence quantum yield (in ClCCl): 0.79

Question: Which photoluminescence quantum yield (in C1CCOC1) does the source give for `CC(C)(C)c1ccc(-c2c(-c3cccc(N(c4ccccc4)c4ccccc4)c3)c(C#N)c(-c3cccc(N(c4ccccc4)c4ccccc4)c3)c(-c3ccc(C(C)(C)C)cc3)c2-c2ccc(C(C)(C)C)cc2)cc1` here?
Answer: The photoluminescence quantum yield was 0.072.

Question: With `CC1=N/C(=C\c2cc(C#N)cc(N(C)C)c2)C(=O)N1C` as the compound, how does the photoluminescence quantum yield (in C1CCOC1) read?
Answer: Its photoluminescence quantum yield is 0.14.

Question: And the photoluminescence quantum yield (in CC#N)?
Answer: Its photoluminescence quantum yield is 0.05.

Question: And the photoluminescence quantum yield (in CCCCCC)?
Answer: The photoluminescence quantum yield was 0.45.

Question: Which photoluminescence quantum yield (in ClCCl) does the source give for `CC1=C2C=CC(c3ccccc3)=[N+]2[B-](F)(F)n2c1ccc2-c1ccccc1` here?
Answer: The photoluminescence quantum yield was 0.64.

Question: For `COc1ccc(-c2cc3ccc4cc(-c5ccc(OC)cc5)cc5ccc(c2)c3c45)cc1`, which photoluminescence quantum yield (in C1CCCCC1) is on record?
Answer: The photoluminescence quantum yield was 0.08.

Question: What about the photoluminescence quantum yield (in C1CCOC1) of the same compound?
Answer: Its photoluminescence quantum yield is 0.17.

Question: And the photoluminescence quantum yield (in CC#N)?
Answer: The photoluminescence quantum yield was 0.13.

Question: What about the photoluminescence quantum yield (in CCCCCC) of the same compound?
Answer: Its photoluminescence quantum yield is 0.04.

Question: And the photoluminescence quantum yield (in CCO)?
Answer: The photoluminescence quantum yield was 0.12.

Question: And the photoluminescence quantum yield (in CN(C)C=O)?
Answer: Its photoluminescence quantum yield is 0.34.

Question: What about the photoluminescence quantum yield (in CO) of the same compound?
Answer: Its photoluminescence quantum yield is 0.09.

Question: And the photoluminescence quantum yield (in Cc1ccccc1)?
Answer: The photoluminescence quantum yield was 0.09.

Question: What about the photoluminescence quantum yield (in ClC(Cl)Cl) of the same compound?
Answer: The photoluminescence quantum yield was 0.04.

Question: And the photoluminescence quantum yield (in ClCCl)?
Answer: The photoluminescence quantum yield was 0.09.

Question: Which photoluminescence quantum yield (in ClCCl) does the source give for `CC(C)(C)c1ccc2c(c1)c1cc(C(C)(C)C)ccc1n2-c1ccc(C#Cc2ccccc2)cc1` here?
Answer: Its photoluminescence quantum yield is 0.8.

Question: For `CN(C)c1ccc(/C=C/c2cc(/C=C/c3ccc(N(C)C)cc3)nc(/C=C/c3ccc(N(C)C)cc3)n2)cc1`, which photoluminescence quantum yield (in ClCCl) is on record?
Answer: Its photoluminescence quantum yield is 0.22.

Question: With `N#Cc1cccc2c(N)c(-c3nn([C@H]4C[C@H](O)[C@@H](CO)O4)c4ncnc(N)c34)ccc12` as the compound, how does the photoluminescence quantum yield (in C1COCCO1) read?
Answer: The photoluminescence quantum yield was 0.47.

Question: And the photoluminescence quantum yield (in CC#N)?
Answer: The photoluminescence quantum yield was 0.23.

Question: And the photoluminescence quantum yield (in CC(C)O)?
Answer: The photoluminescence quantum yield was 0.19.

Question: What about the photoluminescence quantum yield (in CCO) of the same compound?
Answer: Its photoluminescence quantum yield is 0.13.

Question: What about the photoluminescence quantum yield (in CCOC(C)=O) of the same compound?
Answer: The photoluminescence quantum yield was 0.29.

Question: And the photoluminescence quantum yield (in CN(C)C=O)?
Answer: Its photoluminescence quantum yield is 0.21.

Question: And the photoluminescence quantum yield (in CO)?
Answer: Its photoluminescence quantum yield is 0.07.

Question: And the photoluminescence quantum yield (in CS(C)=O)?
Answer: The photoluminescence quantum yield was 0.18.

Question: What about the photoluminescence quantum yield (in OCC(O)CO) of the same compound?
Answer: Its photoluminescence quantum yield is 0.12.

Question: And the photoluminescence quantum yield (in OCCO)?
Answer: Its photoluminescence quantum yield is 0.08.

Question: Which results are given for `CCCCCCN(c1ccccc1)c1ccc2c(c1)C(CC)(CC)c1cc(/C=C/c3ccc(/C=C(\C#N)C(=O)O)s3)ccc1-2`?
Answer: photoluminescence quantum yield (in C1CCOC1): 0.458; photoluminescence quantum yield (in C1COCCO1): 0.813; photoluminescence quantum yield (in CC#N): 0.105; photoluminescence quantum yield (in CC(C)=O): 0.251; photoluminescence quantum yield (in CCOC(C)=O): 0.443; photoluminescence quantum yield (in CN(C)C=O): 0.638; photoluminescence quantum yield (in CS(C)=O): 0.322; photoluminescence quantum yield (in ClCCl): 0.047

Question: For `COc1ccc(-c2c(OC)ccc3nnn(C[C@H](N)C(=O)O)c23)cc1`, which photoluminescence quantum yield (in CO) is on record?
Answer: Its photoluminescence quantum yield is 0.09.

Question: With `c1ccc2c(c1)-c1ccccc1C21c2ccccc2-c2oc3c(c21)C1(c2ccccc2-c2ccccc21)c1ccccc1-3` as the compound, how does the photoluminescence quantum yield (in C1CCOC1) read?
Answer: Its photoluminescence quantum yield is 0.39.

Question: For `CCCCCCc1ccc(-n2c3c4cccc(OC)c4nc(-c4ccc(C)cc4)c3c3c2c2c(-c4ccc(C)cc4)nc4c(OC)cccc4c2n3-c2ccc(CCCCCC)cc2)cc1`, which photoluminescence quantum yield (in ClC(Cl)Cl) is on record?
Answer: The photoluminescence quantum yield was 0.02.

Question: For `Cc1ccc2c(c1)c1cc(C)ccc1n2-c1c(C#N)c(-n2c3ccc(C)cc3c3cc(C)ccc32)c(-n2c3ccc(C)cc3c3cc(C)ccc32)c(C#N)c1-n1c2ccc(C)cc2c2cc(C)ccc21`, which photoluminescence quantum yield (in Cc1ccccc1) is on record?
Answer: Its photoluminescence quantum yield is 0.474.

Question: With `C[Si](C)(c1ccc2cc3ccccc3cc2c1)[Si](C)(C)c1ccc2cc3ccccc3cc2c1` as the compound, how does the photoluminescence quantum yield (in C1CCCCC1) read?
Answer: The photoluminescence quantum yield was 0.18.

Question: And the photoluminescence quantum yield (in CC#N)?
Answer: Its photoluminescence quantum yield is 0.04.

Question: Which photoluminescence quantum yield (in ClCCl) does the source give for `COc1ccc(-c2cc(-c3ccc(C(F)(F)F)cc3)nn2C)cc1` here?
Answer: Its photoluminescence quantum yield is 0.2.

Question: With `c1ccc(-c2ccc(-c3ccc4c(c3)CCO4)cc2)cc1` as the compound, how does the photoluminescence quantum yield (in C1CCCCC1) read?
Answer: Its photoluminescence quantum yield is 0.66.

Question: With `c1cc2c3c4c5c(cccc5cc3c1)-c1cccn1B4n1cccc1-2` as the compound, how does the photoluminescence quantum yield (in C1CCOC1) read?
Answer: The photoluminescence quantum yield was 0.07.

Question: For `Cc1ccc(C#Cc2ccc3ccc4cccc5ccc2c3c45)cc1`, which photoluminescence quantum yield (in CCCCCC) is on record?
Answer: Its photoluminescence quantum yield is 0.29.

Question: And the photoluminescence quantum yield (in CCO)?
Answer: Its photoluminescence quantum yield is 0.3.

Question: What about the photoluminescence quantum yield (in CCOC(C)=O) of the same compound?
Answer: The photoluminescence quantum yield was 0.29.

Question: What about the photoluminescence quantum yield (in ClCCl) of the same compound?
Answer: Its photoluminescence quantum yield is 0.38.

Question: Which photoluminescence quantum yield (in CN(C)C=O) does the source give for `NNC(=O)c1ccc(/C=C/c2ccc(C(=O)NN)cc2)cc1` here?
Answer: Its photoluminescence quantum yield is 0.2.

Question: With `COc1ccc2n1[B-](F)(F)[N+]1=CC=CC1=C2c1ccccc1` as the compound, how does the photoluminescence quantum yield (in CC#N) read?
Answer: The photoluminescence quantum yield was 0.02.

Question: What about the photoluminescence quantum yield (in CCCCCC) of the same compound?
Answer: The photoluminescence quantum yield was 0.01.

Question: And the photoluminescence quantum yield (in CCOC(C)=O)?
Answer: Its photoluminescence quantum yield is 0.01.

Question: What about the photoluminescence quantum yield (in CO) of the same compound?
Answer: Its photoluminescence quantum yield is 0.02.

Question: And the photoluminescence quantum yield (in ClCCl)?
Answer: The photoluminescence quantum yield was 0.02.

Question: Which photoluminescence quantum yield (in O) does the source give for `COc1cc(C(=O)O)cc(OC)c1O` here?
Answer: The photoluminescence quantum yield was 0.009.

Question: With `CC1=C(C#Cc2ccc(B(c3c(C)cc(C)cc3C)c3c(C)cc(C)cc3C)cc2)C(C)=[N+]2C1=C(c1ccccc1)c1c(C)c(C#Cc3ccc(B(c4c(C)cc(C)cc4C)c4c(C)cc(C)cc4C)cc3)c(C)n1[B-]2(F)F` as the compound, how does the photoluminescence quantum yield (in ClCCl) read?
Answer: The photoluminescence quantum yield was 0.65.

Question: With `F[B-]1(F)n2c(cc(Br)c2Br)C(c2ccccc2)=C2C=C(Br)C(Br)=[N+]21` as the compound, how does the photoluminescence quantum yield (in ClC(Cl)Cl) read?
Answer: Its photoluminescence quantum yield is 0.98.
